Measurements from ChEMBL document CHEMBL1201862, “PubChem BioAssay data set” (2004).
Calls of active or inactive are those of the source.

Assays:
[1] = LGR2 antagonists, dose response, cell-based, HEK293, CRE-luciferase reporter, cherry pick, set 2 (AID 743343); type: functional;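 further: transfected cells were stimulated with diluted bursicon conditioned medium after compound addition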
[2] = A549 cell cytotoxicity, dose response, cytotoxicity control, plate reader, cherry-pick, antagonist series (AID 743412); type: functional, cell-based
[3] = MC4R antagonists, dose response, counter-screen for LGR2 antagonist project, cell-based, plate reader, cherry pick (AID 743444); type: functional;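 further: transfected HEK 293 cells stimulated with alpha-MSH peptide; potency of inhibitors of the alpha-MSH evoked signal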
[4] = HEK293 cell cytotoxicity, dose response, cytotoxicity control, plate reader, cherry-picked samples (AID 743446); type: functional, cell-based
[5] = HepG2 cell cytotoxicity, dose response, cytotoxicity control, plate reader, cherry-pick, antagonist series (AID 743416); type: functional, cell-based
[6] = biological target: T1, Oxysterols receptor LXR-beta (Homo sapiens, UniProt P55055); type: functional, cell-based
T1 sequence (P55055 whole entry): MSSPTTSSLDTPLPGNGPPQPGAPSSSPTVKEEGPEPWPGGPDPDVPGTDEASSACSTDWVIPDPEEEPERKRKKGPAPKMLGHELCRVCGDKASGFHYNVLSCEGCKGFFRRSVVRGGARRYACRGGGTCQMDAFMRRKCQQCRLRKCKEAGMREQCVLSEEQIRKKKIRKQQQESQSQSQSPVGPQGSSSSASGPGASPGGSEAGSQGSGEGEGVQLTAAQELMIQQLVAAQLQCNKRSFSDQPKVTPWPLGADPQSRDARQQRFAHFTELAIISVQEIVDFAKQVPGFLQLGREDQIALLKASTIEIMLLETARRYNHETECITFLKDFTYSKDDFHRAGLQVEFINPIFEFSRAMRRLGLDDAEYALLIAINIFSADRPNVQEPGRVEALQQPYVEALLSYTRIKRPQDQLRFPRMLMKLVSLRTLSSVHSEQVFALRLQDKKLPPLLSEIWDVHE

[7] = biological target: Beta-galactosidase (Escherichia coli, UniProt Q8VNN2); test: Dose response counterscreen for EBI2 assay utilizing the enzyme, b-galactosidase.; type: functional
[8] = biological target: T2, Trace amine-associated receptor 1 (Homo sapiens, UniProt Q96RJ0); test: Fluorescence-based cell-based high throughput dose response assay to identify agonists of the human trace amine associated receptor 1 (TAAR1).; type: functional
T2 sequence (Q96RJ0 whole entry): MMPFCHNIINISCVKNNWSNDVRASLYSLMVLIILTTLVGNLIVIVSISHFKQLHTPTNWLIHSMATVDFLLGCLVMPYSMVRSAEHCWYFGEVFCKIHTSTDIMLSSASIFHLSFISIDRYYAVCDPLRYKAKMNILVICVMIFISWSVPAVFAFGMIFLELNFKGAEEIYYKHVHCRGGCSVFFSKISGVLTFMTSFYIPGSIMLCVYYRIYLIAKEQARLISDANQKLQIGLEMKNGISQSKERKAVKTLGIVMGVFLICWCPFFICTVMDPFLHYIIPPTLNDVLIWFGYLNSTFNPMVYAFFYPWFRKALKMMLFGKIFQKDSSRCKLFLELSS

[9] = cells; type: functional, cell-based
[10] = cells; type: functional, cell-based; remark: listed apart in the source
[11] = biological target: T2, Trace amine-associated receptor 1; test: Counterscreen for agonists of the human trace amine associated receptor 1 (hTAAR1): Fluorescence-based cell-based high throughput dose response assay to identify hTAAR1 agonist that also desensitize TAAR1 receptor response.; type: functional
[12] = biological target: T1, Oxysterols receptor LXR-beta; type: functional, cell-based; remark: listed apart in the source
[13] = cells
[14] = biological target: T3, Histone-lysine N-methyltransferase NSD2 (Homo sapiens, UniProt O96028); type: biochemical
T3 sequence (O96028 whole entry): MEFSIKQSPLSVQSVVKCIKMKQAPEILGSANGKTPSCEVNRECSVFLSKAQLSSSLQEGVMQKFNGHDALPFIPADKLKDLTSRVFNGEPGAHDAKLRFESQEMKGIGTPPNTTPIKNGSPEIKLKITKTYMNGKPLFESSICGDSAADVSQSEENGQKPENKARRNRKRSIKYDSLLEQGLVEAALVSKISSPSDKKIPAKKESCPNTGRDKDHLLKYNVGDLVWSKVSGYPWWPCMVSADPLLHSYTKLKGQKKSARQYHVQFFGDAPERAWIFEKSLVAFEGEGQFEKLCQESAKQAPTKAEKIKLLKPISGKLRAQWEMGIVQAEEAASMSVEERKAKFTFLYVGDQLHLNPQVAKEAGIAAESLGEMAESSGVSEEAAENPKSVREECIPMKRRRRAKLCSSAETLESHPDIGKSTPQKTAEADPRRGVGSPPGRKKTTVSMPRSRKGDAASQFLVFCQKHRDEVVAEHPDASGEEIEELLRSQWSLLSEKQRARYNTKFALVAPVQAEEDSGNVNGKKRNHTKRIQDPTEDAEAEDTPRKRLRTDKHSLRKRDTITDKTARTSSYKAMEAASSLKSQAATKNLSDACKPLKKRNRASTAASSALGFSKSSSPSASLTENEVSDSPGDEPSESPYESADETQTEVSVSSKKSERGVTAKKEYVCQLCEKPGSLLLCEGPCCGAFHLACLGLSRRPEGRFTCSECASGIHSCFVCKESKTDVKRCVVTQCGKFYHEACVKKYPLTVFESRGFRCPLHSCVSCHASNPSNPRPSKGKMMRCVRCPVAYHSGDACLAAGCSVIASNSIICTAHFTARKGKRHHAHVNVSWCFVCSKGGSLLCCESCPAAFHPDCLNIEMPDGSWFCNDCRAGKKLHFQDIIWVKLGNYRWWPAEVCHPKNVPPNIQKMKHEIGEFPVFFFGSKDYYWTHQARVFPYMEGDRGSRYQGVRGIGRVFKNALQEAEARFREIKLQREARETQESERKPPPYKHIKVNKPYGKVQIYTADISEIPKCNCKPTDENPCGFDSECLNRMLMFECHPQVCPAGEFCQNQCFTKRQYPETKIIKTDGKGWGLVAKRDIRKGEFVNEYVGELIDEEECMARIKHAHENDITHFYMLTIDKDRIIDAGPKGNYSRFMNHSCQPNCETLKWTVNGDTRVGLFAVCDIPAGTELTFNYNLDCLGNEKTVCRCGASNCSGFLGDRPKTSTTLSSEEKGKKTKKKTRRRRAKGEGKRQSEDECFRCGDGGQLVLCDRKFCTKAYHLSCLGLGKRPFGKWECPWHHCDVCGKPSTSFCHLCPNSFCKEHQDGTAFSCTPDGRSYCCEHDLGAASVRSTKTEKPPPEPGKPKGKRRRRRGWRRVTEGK

[15] = Concentration-dependent survival of SW480 colon cancer line, luminescence detection with CellTiter-Glo, half-maximal inhibitory concentration (AID 1117338); type: functional
[16] = cytotoxicity toward HCT116 cells – cell-based, CellTiter-Glo luminescence, IC50, dose response (AID 1117332); type: functional; settings: HCT-116
[17] = CellTiter-Glo luminescent dose response of DLD-1 viability loss (AID 1117352); type: functional
[18] = cytotoxicity toward Colo320 cells – cell-based, CellTiter-Glo luminescence, IC50, dose response (AID 1117334); type: functional; settings: COLO 320
[19] = biological target: Large T antigen (Simian virus 40, UniProt P03070); type: functional, Betapolyomavirus macacae;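 further: Confirmatory-stage PubChem screen for compounds that inhibit SV40 T antigen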
[20] = biological target: Paired box protein Pax-8 (Homo sapiens, UniProt Q06710); test: inhibitors of PAX8-driven TPO luciferase reporter, dose response, RMG-I cells, cherry-pick (AID 687027); type: functional, cell-based;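 further: luciferase reporter driven by Pax8 target thyroperoxidase promoter measured by SteadyGlo luminescence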
[21] = NIH:OVCAR-3 ovarian cancer cell cytotoxicity, dose response, PAX8 inhibitor project, plate reader, dry powder samples (AID 743044); type: functional, cell-based
[22] = A2780 ovarian cancer cell cytotoxicity, dose response, cytotoxicity control, plate reader, dry powder samples (AID 743046); type: functional, cell-based
[23] = IGROV1 ovarian cancer cell cytotoxicity, dose response, PAX8 inhibitor project, plate reader, dry powder samples (AID 743043); type: functional, cell-based; settings: IGROV-1
[24] = Luminescence-based cell-based high throughput dose response assay to identify activators of the DAF-12 from the parasite S. stercoralis (ssDAF-12).; type: functional
[25] = cytotoxicity toward NIH3T3 fibroblasts, dose response, counter-screen, cell-based, ATP luminescence, mouse fibroblasts (AID 2010); type: functional;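 further: cells exposed to compound for about 90 hours before reading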
[26] = inhibitors of intracellular T. cruzi replication, confirmation, NIH3T3 host cells, beta-gal luminescence (AID 2044); type: functional, cell-based;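 further: intracellular parasites grown in NIH/3T3 mouse fibroblasts as host cells; luminescent beta-galactosidase reporter signal from transgenic T. cruzi replicating inside host cells; inhibitors lower the luminescence signal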
[27] = biological target: T1, Oxysterols receptor LXR-beta; test: LXR agonists, Gal4 luciferase reporter, dose response, counter-screen for ssDAF-12 agonist project, cell-based, luminescence, HEK293, S. stercoralis campaign (AID 720737); type: functional; settings: read-out: IC50 (the source's name)
[28] = A375 melanoma cell viability loss, dose response, counter-screen for MITF inhibitor project, CellTiter-Glo luminescence, dry powder, set 4 (AID 624364); type: functional, cell-based; settings: A-375;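 further: A375 melanoma cells are MITF independent so this is a counter screen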
[29] = A375 melanoma cell cytotoxicity, dose response, counter-screen for MITF inhibitor project, CellTiter-Glo luminescence, dry powder, set 2 (AID 624489); type: functional, cell-based; settings: A-375;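 further: actives are compounds lowering A375 viability meaning general cytotoxicity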
[30] = system: Vero; test: cells; type: functional; settings: Chlorocebus sabaeus
[31] = human group III sPLA2 inhibitors, dose response, biochemical, QFRET, IC50 (AID 743457);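 further: green fluorescence rise as the enzyme cleaves BODIPY PC-A2 in liposomes; potency for inhibition of the enzyme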
[32] = system: Streptococcus; test: Group A Streptococcus viability loss, dose response, counter-screen for streptokinase expression inhibitor project, luminescence, BacTiterGlo (AID 1915); type: functional, organism-based;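 further: potency for reduction of bacterial viability or growth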
[33] = system: Streptococcus sp. 'group A'; test: growth inhibition of control SK(-) GAS strain, dose response, counter-screen for streptokinase expression inhibitor project, luminescence, kanamycin, BacTiterGlo, confirmation (AID 1900); type: functional, organism-based

Chain of Beta-galactosidase (Q8VNN2 whole entry): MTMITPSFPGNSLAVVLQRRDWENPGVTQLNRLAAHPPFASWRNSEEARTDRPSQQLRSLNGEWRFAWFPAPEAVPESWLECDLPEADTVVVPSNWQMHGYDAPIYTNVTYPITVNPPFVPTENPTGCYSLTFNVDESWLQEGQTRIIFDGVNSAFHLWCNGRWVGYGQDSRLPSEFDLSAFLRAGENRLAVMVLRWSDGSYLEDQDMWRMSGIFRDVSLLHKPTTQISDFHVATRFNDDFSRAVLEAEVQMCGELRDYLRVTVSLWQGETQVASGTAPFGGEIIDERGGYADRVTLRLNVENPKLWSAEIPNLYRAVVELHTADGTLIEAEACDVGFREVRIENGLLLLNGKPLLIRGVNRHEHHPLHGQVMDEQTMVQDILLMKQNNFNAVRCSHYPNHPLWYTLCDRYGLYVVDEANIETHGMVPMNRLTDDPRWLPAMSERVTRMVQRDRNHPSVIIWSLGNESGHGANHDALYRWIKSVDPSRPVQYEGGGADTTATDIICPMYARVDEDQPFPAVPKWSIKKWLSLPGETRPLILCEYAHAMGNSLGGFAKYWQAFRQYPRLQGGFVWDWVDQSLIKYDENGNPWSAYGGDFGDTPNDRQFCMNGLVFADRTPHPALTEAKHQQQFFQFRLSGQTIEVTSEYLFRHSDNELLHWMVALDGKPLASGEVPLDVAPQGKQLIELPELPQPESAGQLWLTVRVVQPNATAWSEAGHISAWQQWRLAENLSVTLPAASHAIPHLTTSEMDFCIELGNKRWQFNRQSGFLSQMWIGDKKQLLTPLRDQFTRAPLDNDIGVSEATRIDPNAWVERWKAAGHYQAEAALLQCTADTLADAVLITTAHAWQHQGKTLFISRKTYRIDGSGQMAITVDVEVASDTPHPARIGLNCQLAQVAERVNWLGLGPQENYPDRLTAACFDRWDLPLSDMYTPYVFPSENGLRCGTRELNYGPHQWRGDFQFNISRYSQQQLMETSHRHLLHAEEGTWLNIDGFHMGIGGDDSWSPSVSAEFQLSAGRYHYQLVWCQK
Chain of Paired box protein Pax-8 (Q06710 whole entry): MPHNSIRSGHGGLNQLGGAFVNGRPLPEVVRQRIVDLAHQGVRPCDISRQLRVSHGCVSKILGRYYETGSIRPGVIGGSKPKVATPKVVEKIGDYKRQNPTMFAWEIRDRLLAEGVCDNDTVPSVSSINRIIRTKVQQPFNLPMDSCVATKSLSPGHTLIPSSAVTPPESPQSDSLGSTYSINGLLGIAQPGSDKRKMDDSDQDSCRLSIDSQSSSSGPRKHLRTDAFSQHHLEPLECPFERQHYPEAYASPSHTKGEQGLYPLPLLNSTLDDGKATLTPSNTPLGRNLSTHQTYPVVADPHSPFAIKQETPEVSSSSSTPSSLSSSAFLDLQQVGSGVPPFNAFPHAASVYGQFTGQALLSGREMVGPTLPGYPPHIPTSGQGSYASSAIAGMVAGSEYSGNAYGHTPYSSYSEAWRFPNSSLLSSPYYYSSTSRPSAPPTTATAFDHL
Chain of Large T antigen (P03070 whole entry): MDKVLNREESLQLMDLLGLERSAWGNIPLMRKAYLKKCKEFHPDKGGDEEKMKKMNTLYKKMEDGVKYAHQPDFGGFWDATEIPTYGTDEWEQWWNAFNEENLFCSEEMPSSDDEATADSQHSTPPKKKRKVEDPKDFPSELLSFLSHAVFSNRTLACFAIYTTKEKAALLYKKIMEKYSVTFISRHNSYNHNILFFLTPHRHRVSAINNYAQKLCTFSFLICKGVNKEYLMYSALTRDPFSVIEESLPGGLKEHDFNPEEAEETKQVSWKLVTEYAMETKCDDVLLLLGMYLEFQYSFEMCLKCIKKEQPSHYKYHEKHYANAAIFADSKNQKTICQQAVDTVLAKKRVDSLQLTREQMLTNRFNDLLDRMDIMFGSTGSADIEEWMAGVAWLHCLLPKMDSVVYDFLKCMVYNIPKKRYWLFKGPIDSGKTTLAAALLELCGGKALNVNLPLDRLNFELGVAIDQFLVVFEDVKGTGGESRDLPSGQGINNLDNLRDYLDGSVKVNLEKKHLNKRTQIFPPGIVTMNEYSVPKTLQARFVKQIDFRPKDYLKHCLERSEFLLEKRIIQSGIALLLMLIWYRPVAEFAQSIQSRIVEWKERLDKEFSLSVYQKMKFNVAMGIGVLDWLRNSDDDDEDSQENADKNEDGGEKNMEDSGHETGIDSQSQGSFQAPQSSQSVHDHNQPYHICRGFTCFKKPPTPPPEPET

C[C@H]1CN([C@@H](C)CO)C(=O)Cc2cc(NS(=O)(=O)c3ccc(Cl)cc3)ccc2O[C@@H]1CN(C)Cc1ccc(Cl)c(Cl)c1
AC50 [1]: 20.4 µM (active)
AC50 [2]: 10.2 µM (active)
AC50 [3]: 12.7 µM (active)
AC50 [4]: 19.6 µM (active)
AC50 [5]: 11.3 µM (active)

Clc1ccc(CSc2nc3cc[nH]cc-3n2)cc1
EC50 [6]: > 67.5 µM (inactive)

O=C(c1ccc(Cl)cc1)N1CCN(S(=O)(=O)/C=C/c2ccccc2)CC1
IC50 [7]: > 80 µM (inactive)

CCOC(=O)N[C@@H](Cc1cccnc1)C(=O)N1CCC[C@H]1C(=O)NCCc1ccccc1Cl
EC50 [8]: 3.16 µM (active)
EC50 [9]: > 29.9 µM (inactive)
IC50 [10]: > 29.9 µM (inactive)
IC50 [11]: 8.93 µM (active)

Cc1ccccc1N=Nc1c(O)[nH]c2ccccc12
EC50 [12]: > 67.5 µM (inactive)
EC50 [13]: > 67.5 µM (inactive)

CN(C)c1ccc(C(C#N)c2ccccc2)nn1 (stereo not drawn)
EC50 [6]: > 67.5 µM (inactive)

CCN(CC)C1CCN(c2nc3nonc3nc2NCCOC)C1 (stereo not drawn)
AC50 [14]: 14.4 µM (active)

c1cnc2cc3c(cc2n1)[C@@H]1CNC[C@H]3C1 [VARENICLINE]
IC50 [15]: > 6.67 µM (inactive)
IC50 [16]: > 20 µM (inactive)
IC50 [17]: > 6.67 µM (inactive)
IC50 [18]: > 20 µM (inactive)

CN(C)c1ccc(Nc2nc(-c3cccnc3)cs2)cc1
EC50 [6]: > 67.5 µM (inactive)
IC50 [19]: 8.54 µM (active)

COc1ccccc1S(=O)(=O)N(C)C[C@H]1Oc2cc(C#CCC3CCCC3)ccc2S(=O)(=O)N([C@@H](C)CO)C[C@@H]1C
AC50 [20]: 7.59 µM (active)
AC50 [21]: 17.1 µM (active)
AC50 [22]: 52.2 µM (active)
AC50 [23]: 62.2 µM (active)

CCOc1ccccc1C(=O)N[C@H](C(=O)Nc1nc2c(s1)CCCC2)C(C)C
IC50 [24]: > 67.6 µM (inactive)
EC50 [25]: > 60 µM (inconclusive)
EC50 [26]: 1.01 µM (active)
EC50 [27]: > 67.6 µM (inactive)

CCN1CCN(C2=C(Nc3ccccc3)C(=O)c3ccccc3C2=O)CC1
AC50 [28]: 46.6 µM (active)
AC50 [29]: 25.5 µM (active)

Cc1ccc(Nc2ccc(C(=O)NCCc3ccccc3)cn2)cc1
IC50 [7]: > 80 µM (inactive)

Cc1ccc(CNC(=O)C2CCN(S(=O)(=O)c3ccc4c(c3)OCCCO4)CC2)cc1
IC50 [7]: > 80 µM (inactive)

CN1CCN(c2ncnc3c2cnn3C)CC1
AC50 [14]: 13.3 µM (active)

COc1cc(C(=O)NNC(=S)NC(=O)c2ccc(Cl)cc2)cc(OC)c1OC
EC50 [26]: 0.756 µM (active)
CC50 [30]: > 25 µM (active)
IC50 [31]: > 122 µM (inactive)
EC50 [32]: 2.17 µM (active)
EC50 [33]: 0.822 µM (active)

O=C(Nc1ccccc1)C(=O)c1c[nH]c2ccccc12
IC50 [24]: > 67.5 µM (inactive)
EC50 [27]: > 67.5 µM (inactive)

CN(CCc1ccccc1)C(=O)CC1C(=O)NCCN1Cc1ccccn1 (stereo not drawn)
EC50 [8]: 3.05 µM (active)
EC50 [9]: > 29.9 µM (inactive)
IC50 [10]: > 29.9 µM (inactive)
IC50 [11]: 9.93 µM (active)

Fc1cccc(Cl)c1/C=N/Nc1ccccn1
EC50 [12]: > 67.6 µM (inactive)
EC50 [13]: > 67.6 µM (inactive)

O=C(NC1=C(N2CCOCC2)C(=O)c2ccccc2C1=O)c1ccc(Br)cc1
AC50 [28]: > 70 µM (inactive)
AC50 [29]: 28.9 µM (active)

CC(C)[C@H](NS(=O)(=O)c1ccc(F)cc1F)C(=O)N1CCC[C@H]1C(=O)NCCc1ccccc1Cl
EC50 [8]: 2.89 µM (active)
EC50 [9]: > 29.9 µM (inactive)
IC50 [10]: > 29.9 µM (inactive)
IC50 [11]: 4.65 µM (active)
